Experiments:
[1] = system: NF-κB pathway; experiment: Reporter gene expression assay for NFκB axis in THP1-Dual cells (secreted SEAP); assay type: cell-based, human; settings: Homo sapiens, THP1-Dual, 20 h, 20 hr stimulation, QUANTI-Blue SEAP, EC50 range, read-out: THP-NFKB activity
Protocol: (§1) THP1-Dual™ cells (Invivogen) were derived from the human THP-1 monocyte cell line by stable integration of two inducible reporter constructs. As a result, THP1-Dual™ cells allow the simultaneous study of the NF-κB pathway, by monitoring the activity of secreted SEAP, and the IRF pathway, by assessing the activity of a secreted luciferase (Lucia). […] THP1-Dual™ cells were seeded in 384-well plates in growth medium and stimulated with novel compounds. After 20 hr of stimulation supernatant were removed and reporter proteins were readily measured in the cell culture supernatant using QUANTI-Blue™ (Invivogen), a SEAP detection reagent, and QUANTI-Luc™ (Invivogen), a luciferase detection reagent on a Spectramax i3X luminometer. EC50 value ranges for exemplary compounds tested in the above assay are given.

[2] = system: IRF pathway; experiment: Reporter gene expression assay for IRF axis in THP1-Dual cells (secreted Lucia luciferase); assay type: cell-based, human; settings: Homo sapiens, THP1-Dual, 20 h, 20 hr stimulation, QUANTI-Luc, EC50 range, read-out: THP-IRF activity
Protocol: as §1

[3] = target: T1, WT/R232 STING protein (Homo sapiens, UniProt Q86WV6, H232R); experiment: Luciferase reporter assay in HEK293T-hSTING-Luciferase cells (R232); assay type: cell-based; settings: 20 hr stimulation, EC50 range
T1 construct: host or cells: HEK293T
Procedure, shortened: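 Clonal HEK293T cells stably expressing human STING R232 plus an ISRE/ISG54-driven secreted luciferase reporter, stimulated with compounds for 20 hr. Luciferase in supernatant read by luminescence; activity given as fold-induction over baseline.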

[4] = target: T2, hSTING (H232) (Homo sapiens, UniProt Q86WV6); experiment: Luciferase reporter assay in HEK293T-hSTING-Luciferase cells (H232/REF polymorph); assay type: cell-based; settings: EC50 range
T2 construct: host or cells: HEK293T
From the text: (§2) • a) Stable STING expressing cells—Stable HEK293T STING-expressing cell lines were generated using plasmids purchased from Invivogen, CA, USA, that contain STING cDNA cloned into the pUNO-1 vector under hEF1-HTLV promoter and containing the Blasticidin selection cassette. The plasmids hSTING (R232), hSTING (H232), hSTING (HAQ) were directly procured from Invivogen while hSTING (AQ) and hSTING (Q) were derived from hSTING (HAQ) and hSTING (R232) plasmids respectively by using a PCR based site directed mutagenesis method. These vectors were individually transfected into HEK293T cells using Lipofectamine (Invitrogen) and transfected cells were selected under Blasticidin selection. These transfected cells were further subjected to clonal selection using the limiting dilution method to obtain clonally pure populations of HEK cells transfected with each of the above mentioned human STING variants. Only those clones were selected in which ligand independent activation of STING was minimal. • b) Stable Luciferase reporter gene expressing cells—Stable HEK293T Luciferase reporter gene expressing cell lines were generated using pCDNA4 plasmids under an IRF-inducible promoter. This promoter is comprised of five tandem interferon-stimulated response elements (ISRE) fused to an ISG54 minimal promoter. This vector was transfected into HEK293T cells using Lipofectamine (Invitrogen) and transfected cells were selected under Zeocin selection. These transfected cells were further subjected to clonal selection using the limiting dilution method to obtain clonally pure populations of HEK cells transfected the Luciferase reporter construct. Only those clones were selected in which ligand independent induction of luciferase was minimal.
(§3) 5×10^5 clonally selected HEK293T-hSTING-Luciferase cells were seeded in 384-well plates in growth medium and stimulated with novel compounds. After 20 hr of stimulation supernatant were removed and secretary reporter gene activity were measured using the Quanti-Luc detection system (Invivogen) on a Spectramax i3X luminometer.
(§4) The 5 major polymorphisms of human STING are shown in FIG. 1, with their prevalence in human populations indicated.

[5] = target: T3, hSTING (HAQ) (Homo sapiens, UniProt Q86WV6, G230A/H232R/R293Q/R71H); experiment: Luciferase reporter assay in HEK293T-hSTING-Luciferase cells (HAQ polymorph); assay type: cell-based; settings: EC50 range
T3 construct: host or cells: HEK293T
From the text: as §2, §3, §4

T1 sequence (Q86WV6 whole entry H232R): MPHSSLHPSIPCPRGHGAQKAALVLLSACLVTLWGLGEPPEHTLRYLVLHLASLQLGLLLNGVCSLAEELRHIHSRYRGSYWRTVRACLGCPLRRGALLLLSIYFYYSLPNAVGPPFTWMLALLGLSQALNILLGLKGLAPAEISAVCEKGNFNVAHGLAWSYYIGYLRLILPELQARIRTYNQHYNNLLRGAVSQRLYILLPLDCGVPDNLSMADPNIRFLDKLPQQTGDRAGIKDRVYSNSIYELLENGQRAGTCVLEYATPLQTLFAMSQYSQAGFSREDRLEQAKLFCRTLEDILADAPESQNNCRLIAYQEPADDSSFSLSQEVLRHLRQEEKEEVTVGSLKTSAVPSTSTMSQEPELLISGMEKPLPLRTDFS
T3 sequence (Q86WV6 whole entry R71H/G230A/H232R/R293Q): as the sequence (Q86WV6 whole entry H232R) above, with R71H, G230A, R293Q counted along it
T2 sequence (Q86WV6 whole entry): as the sequence (Q86WV6 whole entry H232R) above, with R232H counted along it

Structure (SMILES)	EC50 [1]	EC50 [2]	EC50 [3]	EC50 [4]	EC50 [5]
Cc1cccc(CNC(=O)c2ccc3c(c2)N(Cc2c(F)cccc2Cl)C(=O)C3(C)C)c1 [Example 8, 1-(2-chloro-6-fluorobenzyl)-3,3-dimethyl-N-(3-methylbenzyl)-2-oxoindoline-6-carboxamide]	1000 to 10000 nM	> 10000 nM	≤ 1000 nM	1000 to 10000 nM	1000 to 10000 nM
CC1(C)C(=O)N(Cc2c(F)cccc2Cl)c2cc(C(=O)NCc3cccc(F)c3)ccc21 [Example 12, 1-(2-chloro-6-fluorobenzyl)-N-(3-fluorobenzyl)-3,3-dimethyl-2-oxoindoline-6-carboxamide]	> 10000 nM	> 10000 nM	≤ 1000 nM	1000 to 10000 nM	1000 to 10000 nM
Cc1ccc(CNC(=O)c2ccc3c(c2)N(Cc2c(F)cccc2Cl)C(=O)C3(C)C)o1 [Example 13, 1-(2-chloro-6-fluorobenzyl)-3,3-dimethyl-N-((5-methylfuran-2-yl)methyl)-2-oxoindoline-6-carboxamide]	> 10000 nM	> 10000 nM	≤ 1000 nM	1000 to 10000 nM	1000 to 10000 nM
CC1(C)C(=O)N(Cc2c(F)cccc2Cl)c2cc(C(=O)NCc3ccc(F)cc3)ccc21 [Example 25, 1-(2-chloro-6-fluorobenzyl)-N-(4-fluorobenzyl)-3,3-dimethyl-2-oxoindoline-6-carboxamide]	1000 to 10000 nM	> 10000 nM	≤ 1000 nM	1000 to 10000 nM	1000 to 10000 nM
CC1(C)C(=O)N(Cc2c(F)cccc2Cl)c2cc(C(=O)NCc3ccc(F)cc3F)ccc21 [Example 26, 1-(2-chloro-6-fluorobenzyl)-N-(2,4-difluorobenzyl)-3,3-dimethyl-2-oxoindoline-6-carboxamide]	1000 to 10000 nM	1000 to 10000 nM	≤ 1000 nM	≤ 1000 nM	≤ 1000 nM
CC1(C)C(=O)N(Cc2c(F)cccc2Cl)c2cc(C(=O)NCc3c(F)cccc3F)ccc21 [Example 27, 1-(2-chloro-6-fluorobenzyl)-N-(2,6-difluorobenzyl)-3,3-dimethyl-2-oxoindoline-6-carboxamide]	1000 to 10000 nM	1000 to 10000 nM	≤ 1000 nM	1000 to 10000 nM	≤ 1000 nM
CC1(C)C(=O)N(Cc2c(F)cccc2Cl)c2cc(C(=O)NCc3nc4ccccc4o3)ccc21 [Example 30, N-(benzo[d]oxazol-2-ylmethyl)-1-(2-chloro-6-fluorobenzyl)-3,3-dimethyl-2-oxoindoline-6-carboxamide]	1000 to 10000 nM	> 10000 nM	1000 to 10000 nM	1000 to 10000 nM	1000 to 10000 nM
CC1(C)C(=O)N(Cc2c(F)cccc2Cl)c2cc(C(=O)NCc3cc4ccccc4o3)ccc21 [Example 36, N-(benzofuran-2-ylmethyl)-1-(2-chloro-6-fluorobenzyl)-3,3-dimethyl-2-oxoindoline-6-carboxamide]	1000 to 10000 nM	1000 to 10000 nM	≤ 1000 nM	1000 to 10000 nM	1000 to 10000 nM

Second part, the molecule after the results:

EC50 [1]	EC50 [2]	EC50 [3]	EC50 [4]	EC50 [5]	Structure (SMILES)
1000 to 10000 nM	1000 to 10000 nM	≤ 1000 nM	≤ 1000 nM	≤ 1000 nM	CC1(C)C(=O)N(Cc2c(F)cccc2Cl)c2cc(C(=O)NCc3c(F)cc(F)cc3F)ccc21 [Example 2, 1-(2-chloro-6-fluorobenzyl)-3,3-dimethyl-2-oxo-N-(2,4,6-trifluorobenzyl)indoline-6-carboxamide]
> 10000 nM	> 10000 nM	1000 to 10000 nM	1000 to 10000 nM	1000 to 10000 nM	Cc1cccc(CNC(=O)c2ccc3c(c2)N(Cc2cc(F)cc(F)c2)C(=O)C3(C)C)c1 [Example 4, 1-(3,5-difluorobenzyl)-3,3-dimethyl-N-(3-methylbenzyl)-2-oxoindoline-6-carboxamide]
1000 to 10000 nM	1000 to 10000 nM	≤ 1000 nM	≤ 1000 nM	≤ 1000 nM	CC1(C)C(=O)N(Cc2cc(F)cc(F)c2)c2cc(C(=O)NCc3c(F)cc(F)cc3F)ccc21 [Example 5, 1-(3,5-difluorobenzyl)-3,3-dimethyl-2-oxo-N-(2,4,6-trifluorobenzyl)indoline-6-carboxamide]
1000 to 10000 nM	1000 to 10000 nM	≤ 1000 nM	≤ 1000 nM	≤ 1000 nM	CC1(C)C(=O)N(Cc2ccccc2F)c2cc(C(=O)NCc3c(F)cc(F)cc3F)ccc21 [Example 6, 1-(2-fluorobenzyl)-3,3-dimethyl-2-oxo-N-(2,4,6-trifluorobenzyl)indoline-6-carboxamide]
1000 to 10000 nM	> 10000 nM	≤ 1000 nM	1000 to 10000 nM	1000 to 10000 nM	CC1(C)C(=O)N(Cc2ccccc2)c2cc(C(=O)NCc3c(F)cc(F)cc3F)ccc21 [Example 11, 1-benzyl-3,3-dimethyl-2-oxo-N-(2,4,6-trifluorobenzyl)indoline-6-carboxamide]
1000 to 10000 nM	1000 to 10000 nM	≤ 1000 nM	1000 to 10000 nM	1000 to 10000 nM	CC1(C)C(=O)N(Cc2cccc(F)c2)c2cc(C(=O)NCc3c(F)cc(F)cc3F)ccc21 [Example 14, 1-(3-fluorobenzyl)-3,3-dimethyl-2-oxo-N-(2,4,6-trifluorobenzyl)indoline-6-carboxamide]
> 10000 nM	> 10000 nM	1000 to 10000 nM	1000 to 10000 nM	1000 to 10000 nM	Cc1ccc(CNC(=O)c2ccc3c(c2)N(Cc2cc(F)cc(F)c2)C(=O)C3(C)C)o1 [Example 16, 1-(3,5-difluorobenzyl)-3,3-dimethyl-N-((5-methylfuran-2-yl)methyl)-2-oxoindoline-6-carboxamide]
1000 to 10000 nM	> 10000 nM	≤ 1000 nM	1000 to 10000 nM	1000 to 10000 nM	Cc1cccc(CN2C(=O)C(C)(C)c3ccc(C(=O)NCc4c(F)cc(F)cc4F)cc32)c1 [Example 18, 3,3-dimethyl-1-(3-methylbenzyl)-2-oxo-N-(2,4,6-trifluorobenzyl)indoline-6-carboxamide]
1000 to 10000 nM	> 10000 nM	≤ 1000 nM	1000 to 10000 nM	1000 to 10000 nM	CC1(C)C(=O)N(Cc2cccc(Cl)c2)c2cc(C(=O)NCc3c(F)cc(F)cc3F)ccc21 [Example 19, 1-(3-chlorobenzyl)-3,3-dimethyl-2-oxo-N-(2,4,6-trifluorobenzyl)indoline-6-carboxamide]
1000 to 10000 nM	1000 to 10000 nM	≤ 1000 nM	1000 to 10000 nM	≤ 1000 nM	CC1(C)C(=O)N(Cc2ccc(F)cc2)c2cc(C(=O)NCc3c(F)cc(F)cc3F)ccc21 [Example 20, 1-(4-fluorobenzyl)-3,3-dimethyl-2-oxo-N-(2,4,6-trifluorobenzyl)indoline-6-carboxamide]
1000 to 10000 nM	> 10000 nM	≤ 1000 nM	1000 to 10000 nM	1000 to 10000 nM	CC1(C)C(=O)N(Cc2cc(F)cc(F)c2)c2cc(C(=O)NCc3cc4ccccc4o3)ccc21 [Example 23, N-(benzofuran-2-ylmethyl)-1-(3,5-difluorobenzyl)-3,3-dimethyl-2-oxoindoline-6-carboxamide]
1000 to 10000 nM	1000 to 10000 nM	≤ 1000 nM	≤ 1000 nM	≤ 1000 nM	CC1(C)C(=O)N(Cc2cccc(F)c2F)c2cc(C(=O)NCc3c(F)cc(F)cc3F)ccc21 [Example 33, 1-(2,3-difluorobenzyl)-3,3-dimethyl-2-oxo-N-(2,4,6-trifluorobenzyl)indoline-6-carboxamide]

Reference: patent US20200172483A1, “HETEROCYCLIC SMALL MOLECULE MODULATORS OF HUMAN STING” (Curadev Pharma Limited, priority 2017, published 2020)
